Experimental data as given in patent US20240051952A1, “HMOX1 INDUCERS” (Mitobridge Inc., priority 2019, published 2024).

Test system: Human Heme Oxygenase-1 (HMOX-1)
Assay: ELISA assay to measure human heme oxygenase-1 (HMOX-1) in HepG2 lysate
Assay type: cell-based
Details: for Maximum Fold induction: fold change of human HMOX1 protein levels relative to DMSO control, HepG2; for EC50: human HMOX1 protein in HepG2 lysate, ELISA, * = average of 2 or more EC50 determinations, NA = Not Active
How it was run: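 HepG2 cells lysed in PBS/0.5% Triton X-100/1 mM EDTA with protease inhibitors; lysate diluted 1:20. Sandwich ELISA: anti-HO-1 capture (8 μg/ml), biotinylated detection antibody (200 ng/ml), streptavidin-HRP, chemiluminescent read. Quantified against 12-point HO-1 standard curve from 20 ng/ml; incubations at 20 °C.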

Maximum Fold induction | Compound | EC50 [nM]
17 | CCn1c(Nc2nc3ccc(OC(F)(F)F)cc3o2)nc2cc(C(=O)O)ccc21 [Example 84, 1-ethyl-2-((6-(trifluoromethoxy)benzo[d]oxazol-2-yl)amino)-1H-benzo[d]imidazole-5-carboxylic acid] | 
21 | O=C(O)c1ccc2c(c1)nc(Nc1nc3ccc(OC(F)(F)F)cc3o1)n2CC1CCOC1 (stereo not drawn) [Example 87, 1-((tetrahydrofuran-3-yl)methyl)-2-((6-(trifluoromethoxy)-benzo[d]oxazol-2-yl)amino)-1H-benzo[d]imidazole-5-carboxylic acid] | 
10 | CS(=O)(=O)CCn1c(Nc2nc3ccc(OC(F)(F)F)cc3o2)nc2cc(C(=O)O)ccc21 [Example 89, 1-(2-(methylsulfonyl)ethyl)-2-((6-(trifluoromethoxy)benzo[d]oxazol-2-yl)amino)-1H-benzo[d]imidazole-5-carboxylic acid] | 
17-26 | Cn1c(Nc2nc3ccc(Br)cc3o2)nc2cc(C(=O)O)ccc21 [Example 91, 2-((6-bromobenzo[d]oxazol-2-yl)amino)-1-methyl-1H-benzo[d]imidazole-5-carboxylic acid] | 
12-20 | COc1ccc2nc(Nc3nc4cc(C(=O)NCCO)ccc4n3C)oc2c1 [Example 92, N-(2-hydroxyethyl)-2-((6-methoxybenzo[d]oxazol-2-yl)amino)-1-methyl-1H-benzo[d]imidazole-5-carboxamide] | 
22 | O=C(O)c1ccc2c(c1)nc(Nc1nc3ccc(OC(F)(F)F)cc3o1)n2CC1(O)COC1 [Example 93, 1-((3-hydroxyoxetan-3-yl)methyl)-2-((6-(trifluoromethoxy)benzo[d]oxazol-2-yl)amino)-1H-benzo[d]imidazole-5-carboxylic acid] | 
39-56 | Cn1c(Nc2nc3ccc(Cl)cc3o2)nc2cc(C(=O)O)ccc21 [Example 96, 2-((6-chlorobenzo[d]oxazol-2-yl)amino)-1-methyl-1H-benzo[d]imidazole-5-carboxylic acid] | 
36-56 | Cn1c(Nc2nc3ccc(OCC(F)(F)F)cc3o2)nc2cc(C(=O)O)ccc21 [Example 98, 1-methyl-2-((6-(2,2,2-trifluoroethoxy)benzo[d]oxazol-2-yl)amino)-1H-benzo[d]imidazole-5-carboxylic acid] | 
25-31 | COCCNC(=O)c1ccc2c(c1)nc(Nc1nc3ccc(OCC(F)(F)F)cc3o1)n2C [Example 99, N-(2-methoxyethyl)-1-methyl-2-((6-(2,2,2-trifluoroethoxy)benzo[d]oxazol-2-yl)amino)-1H-benzo[d]imidazole-5-carboxamide] | 
24-35 | Cn1c(Nc2nc3ccc(OCC(F)(F)F)cc3o2)nc2cc(C(=O)NCCO)ccc21 [Example 100, N-(2-hydroxyethyl)-1-methyl-2-((6-(2,2,2-trifluoroethoxy)benzo[d]oxazol-2-yl)amino)-1H-benzo[d]imidazole-5-carboxamide] | 
21 | Cn1c(Nc2nc3ccc(OCCO)cc3o2)nc2cc(C(=O)O)ccc21 [Example 101, 2-((6-(2-hydroxyethoxy)benzo[d]oxazol-2-yl)amino)-1-methyl-1H-benzo[d]imidazole-5-carboxylic acid] | 
26-40 | COCCNC(=O)c1ccc2c(c1)nc(Nc1nc3ccc(OCCO)cc3o1)n2C [Example 102, 2-((6-(2-hydroxyethoxy)benzo[d]oxazol-2-yl)amino)-N-(2-methoxyethyl)-1-methyl-1H-benzo[d]imidazole-5-carboxamide] | 
37-39 | Cn1c(Nc2nc3ccc(OCCO)cc3o2)nc2cc(C(=O)NCCO)ccc21 [Example 103, 2-((6-(2-hydroxyethoxy)benzo[d]oxazol-2-yl)amino)-N-(2-hydroxyethyl)-1-methyl-1H-benzo[d]imidazole-5-carboxamide] | 
36 | Cl.Cn1c(Nc2nc3ccc(OCCO)cc3o2)nc2cc(C(=O)NCCN)ccc21 [Example 105, N-(2-aminoethyl)-2-((6-(2-hydroxyethoxy)benzo[d]oxazol-2-yl)amino)-1-methyl-1H-benzo[d]imidazole-5-carboxamide hydrochloride] | 
45 | Cn1c(Nc2nc3cc(F)c(C(F)(F)F)cc3o2)nc2cc(C(=O)O)ccc21 [Example 107, 2-((5-fluoro-6-(trifluoromethyl)benzo[d]oxazol-2-yl)amino)-1-methyl-1H-benzo[d]imidazole-5-carboxylic acid] | 
71 | Cn1c(Nc2nc3ccc(C4CC4)cc3o2)nc2cc(C(=O)O)ccc21 [Example 115, 2-((6-cyclopropylbenzo[d]oxazol-2-yl)amino)-1-methyl-1H-benzo[d]imidazole-5-carboxylic acid] | 

More lines, now with the values behind:

Compound | Maximum Fold induction | EC50 [nM]
COCCNC(=O)c1ccc2c(c1)nc(Nc1nc3cc(Cl)ccc3[nH]1)n2C [Example 83, 2-((5-chloro-1H-benzo[d]imidazol-2-yl)amino)-N-(2-methoxyethyl)-1-methyl-1H-benzo[d]imidazole-5-carboxamide] | 16-21 | 
CCn1c(Nc2nc3ccc(OC(F)(F)F)cc3o2)nc2cc(C(=O)NCCOC)ccc21 [Example 85, 1-ethyl-N-(2-methoxyethyl)-2-((6-(trifluoromethoxy)benzo[d]oxazol-2-yl)amino)-1H-benzo[d]imidazole-5-carboxamide] |  | 1300
CCn1c(Nc2nc3ccc(OC(F)(F)F)cc3o2)nc2cc(C(=O)NCCO)ccc21 [Example 86, 1-ethyl-N-(2-hydroxyethyl)-2-((6-(trifluoromethoxy)benzo[d]oxazol-2-yl)amino)-1H-benzo[d]imidazole-5-carboxamide] | 15-32 | 
COCCNC(=O)c1ccc2c(c1)nc(Nc1nc3ccc(OC(F)(F)F)cc3o1)n2CC1CCOC1 (stereo not drawn) [Example 88, N-(2-methoxyethyl)-1-((tetrahydrofuran-3-yl)methyl)-2-((6-(trifluoromethoxy)benzo[d]oxazol-2-yl)amino)-1H-benzo[d]imidazole-5-carboxamide] |  | 1500
COCCNC(=O)c1ccc2c(c1)nc(Nc1nc3ccc(OC(F)(F)F)cc3o1)n2CCS(C)(=O)=O [Example 90, N-(2-methoxyethyl)-1-(2-(methylsulfonyl)ethyl)-2-((6-(trifluoromethoxy)benzo[d]oxazol-2-yl)amino)-1H-benzo[d]imidazole-5-carboxamide] | 22 | 
COCCNC(=O)c1ccc2c(c1)nc(Nc1nc3ccc(OC(F)(F)F)cc3o1)n2CC1(O)COC1 [Example 94, 1-((3-hydroxyoxetan-3-yl)methyl)-N-(2-methoxyethyl)-2-((6-(trifluoromethoxy)benzo[d]oxazol-2-yl)amino)-1H-benzo[d]imidazole-5-carboxamide] | 28 | 
O=C(NCCO)c1ccc2c(c1)nc(Nc1nc3ccc(OC(F)(F)F)cc3o1)n2CC1(O)COC1 [Example 95, N-(2-hydroxyethyl)-1-((3-hydroxyoxetan-3-yl)methyl)-2-((6-(trifluoromethoxy)benzo[d]oxazol-2-yl)amino)-1H-benzo[d]imidazole-5-carboxamide] | 21 | 
Cn1c(Nc2nc3ccc(Cl)cc3o2)nc2cc(C(=O)NCCO)ccc21 [Example 97, 2-((6-chlorobenzo[d]oxazol-2-yl)amino)-N-(2-hydroxyethyl)-1-methyl-1H-benzo[d]imidazole-5-carboxamide] | 33-51 | 
Cn1c(Nc2nc3ccc(OCCO)cc3o2)nc2cc(C(=O)NCCOCCO)ccc21 [Example 104, 2-((6-(2-hydroxyethoxy)benzo[d]oxazol-2-yl)amino)-N-(2-(2-hydroxyethoxy)ethyl)-1-methyl-1H-benzo[d]imidazole-5-carboxamide] | 23 | 
Cn1c(Nc2nc3ccc(OCCO)cc3o2)nc2cc(C(=O)NCCNC3=NCCN3)ccc21 [Example 106, N-(2-((4,5-dihydro-1H-imidazol-2-yl)amino)ethyl)-2-((6-(2-hydroxyethoxy)benzo[d]oxazol-2-yl)amino)-1-methyl-1H-benzo[d]imidazole-5-carboxamide] | 6 | 
Cn1c(Nc2nc3cc(F)c(C(F)(F)F)cc3o2)nc2cc(C(=O)NCCO)ccc21 [Example 108, 2-((5-fluoro-6-(trifluoromethyl)benzo[d]oxazol-2-yl)amino)-N-(2-hydroxyethyl)-1-methyl-1H-benzo[d]imidazole-5-carboxamide] | 29 | 
COCCNC(=O)c1ccc2c(c1)nc(Nc1nc3cccnc3o1)n2C [Example 109, N-(2-methoxyethyl)-1-methyl-2-(oxazolo[5,4-b]pyridin-2-ylamino)-1H-benzo[d]imidazole-5-carboxamide] | 26 | 
Cn1c(Nc2nc3cccnc3o2)nc2cc(C(=O)NCCO)ccc21 [Example 110, N-(2-hydroxyethyl)-1-methyl-2-(oxazolo[5,4-b]pyridin-2-ylamino)-1H-benzo[d]imidazole-5-carboxamide] | 60 | 
Cn1c(Nc2nc3ncccc3o2)nc2cc(C(=O)O)ccc21 [Example 111, 1-methyl-2-(oxazolo[4,5-b]pyridin-2-ylamino)-1H-benzo[d]imidazole-5-carboxylic acid] | 3 | 
COCCNC(=O)c1ccc2c(c1)nc(Nc1nc3ncccc3o1)n2C [Example 112, N-(2-methoxyethyl)-1-methyl-2-(oxazolo[4,5-b]pyridin-2-ylamino)-1H-benzo[d]imidazole-5-carboxamide] | 15 | 
Cn1c(Nc2nc3ccc(C(F)(F)F)nc3o2)nc2cc(C(=O)NCCO)ccc21 [Example 113, N-(2-hydroxyethyl)-1-methyl-2-((5-(trifluoromethyl)oxazolo[5,4-b]pyridin-2-yl)amino)-1H-benzo[d]imidazole-5-carboxamide] | 20 | 
Cn1c(Nc2nc3nccnc3s2)nc2cc(C(=O)NCCOCCO)ccc21 [Example 114, N-(2-(2-hydroxyethoxy)ethyl)-1-methyl-2-(thiazolo[4,5-b]pyrazin-2-ylamino)-1H-benzo[d]imidazole-5-carboxamide] | 33 | 
